Measured values taken from patent publication US20100021918A1, “METHOD FOR ASSAYING ACTION OF ANTITUMOR AGENT USING SPLICING DEFECTS AS INDEX” (Eisai R&D Management Co., Ltd., priority 2007, published 2010).

Tested on: SMN
Test: Western blotting of abnormal protein from pre-mRNA, SMN
Assay type: cell-based, human
Details: HeLa cells, 10 nM and 100 nM, 24 hours; untreated: only a 35 kDa band (FIG. 4)
Excerpt: Consequently the protein may serves as a protein marker to monitor the action of (8E,12E,14E)-7-((4-cycloheptylpiperazin-1-yl)carbonyl)oxy-3,6,16,21-tetrahydroxy-6,10,12,16,20-pentamethyl-18,19-epoxytricosa-8,12,14-trien-11-olide. Whether the pre-mRNA-dependent abnormal protein practically emerged upon the treatment of (8E,12E,14E)-7-((4-cycloheptylpiperazin-1-yl)carbonyl)oxy-3,6,16,21-tetrahydroxy-6,10,12,16,20-pentamethyl-18,19-epoxytricosa-8,12,14-trien-11-olide was examined by using cancer cells (HaLa). […] Based on these findings, the protein generated from pre-mRNA can serve as the marker as well.
About 3×10^5 cells of HeLa cells were first seeded in a 24-well culture plate (bottom area: 2 cm^2), and 18 hours later, the compound was added thereto at the indicated concentration, followed by additional 24-hour culturing. The cells were washed once with PBS(−), and then were lysed by treating with 0.2 ml of M-PER reagent (PIERCE) for 30 minutes. The collected lysate was filtered with a 0.45 μm filter to remove insoluble matters and then combined with an equal amount of 2×SDS-PAGE sample solution. The mixture was heated to be denatured at 95° C. for five minutes to yield a sample to be analyzed.
The analysis sample (15 μl each) was separated with 5-20% SDS-PAGE and transferred onto a PVDF membrane (Hybond-P: GE-Amersham). […]

CCC(O)C(C)C1OC1CC(C)(O)/C=C/C=C(\C)C1OC(=O)CC(O)CCC(C)(O)C(OC(=O)N2CCN(C3CCCCCC3)CC2)/C=C/C1C (stereo not shown) [E7107, (8E,12E,14E)-7-((4-cycloheptylpiperazin-1-yl)carbonyl)oxy-3,6,16,21-tetrahydroxy-6,10,12,16,20-pentamethyl-18,19-epoxytricosa-8,12,14-trien-11-olide]
SMN bands in Western blot: multiple bands with a molecular weight of less than 35 kDa were confirmed
